Paper PMC3828658 (Organic & biomolecular chemistry, 2013)
“Also recorded” adds a separate entry of the source.

Key:
LDH-A [1] = target: T1, LDH-A (Homo sapiens, UniProt P00338); experiment: Enzyme kinetics, NADH-competition, mixed-model inhibition fit; type: biochemical
HeLa cells [2] = experiment: Lactate production inhibition in HeLa cells quantified by GC-MS; type: cell-based, human; settings: 8 hours; for effect on lactate production: 50-200 μM
HeLa cells [3] = experiment: Anticancer potency, 72 hour Sulforhodamine B assay; type: cell-based, human; settings: for cell death: HeLa cells, 100 μM, 72 hours; for IC50: Homo sapiens, HeLa, 72 h, read-out: Anticancer potency, 72 hour IC50
WT-MEF = experiment: Growth inhibition in non-cancerous immortalized cell line, SRB assay; type: cell-based; settings: 100 μM, 72 hours, preliminary
HeLa cells [4] = experiment: Intracellular concentration / cellular uptake by LC-MS; type: cell-based, human; settings: 500 μM, 30 minutes
Stability [5] = type: in vitro ADME, human; settings: 30 min at 37 °C, 100 μM
Stability [6] = type: in vitro ADME; settings: RPMI 1640 growth media, 30 min at 37 °C, 100 μM
LDH-A [7] = target: T1, LDH-A; experiment: Enzyme inhibition of purified human LDH-A; type: biochemical
LDH-A [8] = settings: read-out: LDH-A IC50 reported in the literature; cited from earlier work
[9] = cited from earlier work

O=C(O)c1cc2c(C(F)(F)F)cc(-c3ccccc3)cc2n1O [Compound 1, 1-Hydroxy-6-phenyl-4-(trifluoromethyl)-1H-indol-2-carboxylic acid]
Ki (LDH-A [1]): 10.8 µM | lactate production relative to vehicle (HeLa cells [2]; 100 μM): 70% | cell death (HeLa cells [3]): 100% | IC50 (HeLa cells [3]): 43.8 µM | cell death (WT-MEF): less than 20%

COC(=O)c1cc2c(C(F)(F)F)cc(-c3ccccc3)cc2n1O [Compound 2, methyl 1-hydroxy-6-phenyl-4-(trifluoromethyl)-1H-indol-2-carboxylate]
concentration in HeLa cell lysate solution relative to free acid 1 (HeLa cells [4]; LC-MS): ~ 4 fold | cleavage of methyl ester following cellular incubation (HeLa cells [4]; HeLa cells): No cleavage | cleavage in HeLa cell lysate (Stability [5]): not appreciably cleaved | stability / cleavage in culture media (Stability [6]): not appreciably cleaved | lactate production relative to vehicle (HeLa cells [2]; 200 μM): ~ 20% | cell death (HeLa cells [3]): 100% | IC50 (HeLa cells [3]): 33.4 µM | cell death (WT-MEF): approximately 70%

Cc1nc2ccc(NC(=O)CCNC(=O)CCCc3ccc(CC(C(=O)O)C(=O)O)cc3)cc2s1 [Compound 3, 2-(4-(4-((3-((2-methylbenzo[d]thiazol-6-yl)amino)-3-oxopropyl)amino)-4-oxobutyl)benzyl)malonic acid, reference compound]
IC50 (LDH-A [7]): 1 ± 0.2 µM | Ki (LDH-A [1]): 0.23 µM | cellular uptake in HeLa cells (HeLa cells [4]; LC-MS): could not be detected in lysate | effect on lactate production (HeLa cells [2]): did not show any effect | IC50 (HeLa cells [3]): > 500 µM | IC50 (LDH-A [8]): 0.5 µM | activity in cell-based assays (literature) [9]: inactive

COC(=O)C(Cc1ccc(CCCC(=O)NCCC(=O)Nc2ccc3nc(C)sc3c2)cc1)C(=O)OC [Compound 4, dimethyl 2-(4-(4-((3-((2-methylbenzo[d]thiazol-6-yl)amino)-3-oxopropyl)amino)-4-oxobutyl)benzyl)malonate, reference compound]
LDH-A (IC50) [NADH] (LDH-A [7]; NADH-competition assay: 1440 μM sodium pyruvate, 40 μM NADH, mean ± SD): lack of inhibitory potency | cellular uptake in HeLa cells (HeLa cells [4]; LC-MS): efficient cell uptake | cleavage in HeLa cell lysate (Stability [5]): substantially cleaved to compound 5 | monohydrolysis to monoester 5 in HeLa cell lysate (Stability [5]): ~ 50% | stability / cleavage in culture media (Stability [6]): stable; also recorded: not appreciably cleaved | effect on lactate production (HeLa cells [2]): significant reduction | IC50 (HeLa cells [3]): 75.4 µM

COC(=O)C(Cc1ccc(CCCC(=O)NCCC(=O)Nc2ccc3nc(C)sc3c2)cc1)C(=O)O (stereo not drawn) [Compound 5, 3-Methoxy-2-(4-(4-((3-((2-methylbenzo[d]thiazol-6-yl)amino)-3-oxopropyl)amino)-4-oxobutyl)benzyl)-3-oxopropanoic acid]
cellular uptake in HeLa cells (HeLa cells [4]; LC-MS): no direct cell uptake | effect on lactate production (HeLa cells [2]): failed to result in any substantial reduction | cell death in HeLa cells (HeLa cells [3]; 72 hour treatment, up to 200 μM): No substantial cell death
